{"source": "patent US20220127570A1", "about": "“IMMUNE EFFECTOR CELL AND USE THEREOF” (CAFA THERAPEUTICS LIMITED, priority 2018, published 2022)", "key": {"[1]": {"conditions": "cited from earlier work"}, "[2]": {"test_system": "PLC/PRF/5 subcutaneous xenograft", "assay": "PLC/PRF/5 subcutaneous xenograft model, CAR T in combination with sorafenib", "type": "in vivo, NPG mice", "procedure": "2) Inoculation of subcutaneous xenograft: PLC/PRF/5 cells in the logarithmic growth phase and in good growth condition were collected by Trypsin digestion and washed once with normal saline. The cell density was adjusted to 1.5×10^7/mL and 200 μL of cell suspension was injected into the subcutaneous part of the right abdomen of NPG mice using a syringe, that is, each mouse was inoculated with 3×10^6 tumor cells, and the inoculation day was the 0th day.\n3) Injection of CAR T: On D14 days after subcutaneous inoculation of tumor cells, the average tumor volume was about 260 mm^3. CAR T cells were injected, and the injection dose: 2.0×10^6/animal. On D1-D14 days after subcutaneous inoculation of tumor cells, sorafenib was administered by gavage at a dose of 75 mg/kg, and the gavage volume was 200 ul, once a day, for 14 consecutive days, and the solvent was used as a negative control."}}}
{"smiles": "CNC(=O)c1cc(Oc2ccc(NC(=O)Nc3ccc(Cl)c(C(F)(F)F)c3)cc2)ccn1", "note": "[Sorafenib]", "values": [{"measurement": "solubility in polyvinylglycerol 400 (PEG400)", "setting": "[1]; PEG400", "result": "soluble"}, {"measurement": "solubility in ethanol", "setting": "[1]; ethanol", "result": "slightly soluble"}, {"measurement": "solubility in water", "setting": "[1]; water", "result": "poorly soluble"}, {"measurement": "tumor inhibiting rate", "setting": "[2]; D18 after injection of CAR T, compared with UTD control group, CAR T 2.0×10^6/animal, sorafenib 75 mg/kg gavage once a day for 14 days", "result": 27.38, "unit": "%"}, {"measurement": "body weight of mice compared with UTD", "setting": "[2]; at the beginning of the treatment", "result": "decreased"}, {"measurement": "body weight of mice", "setting": "[2]; at the end of the treatment", "result": "restored"}]}
